Measured values published in ChEMBL document CHEMBL3616451, “Design and synthesis of 11α-substituted bile acid derivatives as potential anti-tuberculosis agents” (Bioorg Med Chem Lett, 2015).
Converted amounts (≈) assume the structure as drawn. The source made the active and inactive calls. The calls are words filed in the database; no cut-off is given here.

Key:
Staphylococcus aureus = experiment: Antibacterial activity against Staphylococcus aureus ATCC 29213 assessed as growth inhibition at 30 ug/ml relative to control; format: functional
[1] = test system: Mycobacterium tuberculosis; experiment: Anti-tubercular activity against rifampicin, isoniazid, ethambutol and pyrazinamide-sensitive Mycobacterium tuberculosis H37Ra ATCC 25177 assessed as growth inhibition at 10 ug/ml by XRMA method relative to control; format: functional; settings: read-out: GI
[2] = Cytotoxicity against human PANC1 cells after 48 hrs by MTT assay; format: cell-based, PANC-1
[3] = test system: Mycobacterium tuberculosis; experiment: Anti-tubercular activity against rifampicin, isoniazid, ethambutol and pyrazinamide-sensitive Mycobacterium tuberculosis H37Ra ATCC 25177 assessed as growth inhibition at 3 ug/ml by XRMA method relative to control; format: functional; settings: read-out: GI
[4] = test system: Mycobacterium tuberculosis; experiment: Anti-tubercular activity against rifampicin, isoniazid, ethambutol and pyrazinamide-sensitive active phage of Mycobacterium tuberculosis H37Ra ATCC 25177 infected in human THP1 cells by neutral red assay; format: functional, organism-based; settings: H37Ra ATCC 25177, THP-1
[5] = test system: Mycobacterium tuberculosis; experiment: Anti-tubercular activity against rifampicin, isoniazid, ethambutol and pyrazinamide-sensitive Mycobacterium tuberculosis H37Ra ATCC 25177 assessed as growth inhibition at 30 ug/ml by XRMA method relative to control; format: functional; settings: read-out: GI
Bacillus subtilis = experiment: Antibacterial activity against Bacillus subtilis ATCC 23857 assessed as growth inhibition at 30 ug/ml relative to control; format: functional; settings: read-out: GI
[6] = test system: Mycobacterium tuberculosis; experiment: Anti-tubercular activity against rifampicin, isoniazid, ethambutol and pyrazinamide-sensitive active phage of Mycobacterium tuberculosis H37Ra ATCC 25177 by serial dilution method; format: functional, organism-based
Escherichia coli = experiment: Antibacterial activity against Escherichia coli […] assessed as growth inhibition at 30 ug/ml relative to control; format: functional
Pseudomonas fluorescens = experiment: Antibacterial activity against Pseudomonas fluorescens ATCC 13525 assessed as growth inhibition at 30 ug/ml relative to control; format: functional
[7] = (§1) Cytotoxicity against human THP1 cells after 48 hrs by MTT assay; format: cell-based, THP-1; settings: THP-1 cells
THP-1 = experiment: as §1; format: cell-based; settings: thp-1, 48 h
[8] = test system: Mycobacterium tuberculosis; experiment: Anti-tubercular activity against rifampicin, isoniazid, ethambutol and pyrazinamide-sensitive dormant phage of Mycobacterium tuberculosis H37Ra ATCC 25177 by serial dilution method; format: functional, organism-based
[9] = (§2) Cytotoxicity against human A549 cells after 48 hrs by MTT assay; format: cell-based; settings: A549 cells
A549 = experiment: as §2; format: cell-based; settings: a549, 48 h
[10] = test system: Mycobacterium tuberculosis; experiment: Anti-tubercular activity against rifampicin, isoniazid, ethambutol and pyrazinamide-sensitive dormant phage of Mycobacterium tuberculosis H37Ra ATCC 25177 infected in human THP1 cells by neutral red assay; format: functional, organism-based; settings: H37Ra ATCC 25177, THP-1

CCCCCCc1cn([C@@H]2C(=O)[C@]3(C)[C@@H]([C@H](C)CCC(=O)OC)CC[C@H]3[C@H]3[C@H]2[C@@]2(C)CC[C@@H](OC(C)=O)C[C@H]2C[C@H]3OC(C)=O)nn1
growth inhibition (GI) (Staphylococcus aureus): inactive | inhibition of growth at 10 µg/mL [1]: 96% | GI50 at 48 h ([2]; PANC-1 cells): > 100 µg/mL | GI90 ([2]; panc-1, 48 h): > 100 µg/mL | inhibition of growth at 3 µg/mL [3]: 91% | IC50 [4]: 0.25 µg/mL (≈ 0.381 µM) | IC90 [4]: 2.8 µg/mL (≈ 4.27 µM) | inhibition of growth at 30 µg/mL [5]: 97% | inhibition of growth at 30 µg/mL (Bacillus subtilis): 22.9% | IC50 [6]: 0.64 µg/mL (≈ 0.976 µM) | IC90 [6]: 2.63 µg/mL (≈ 4.01 µM) | growth inhibition (GI) (Escherichia coli): inactive | growth inhibition (GI) (Pseudomonas fluorescens): inactive | GI50 at 48 h [7]: > 100 µg/mL | GI90 (THP-1): > 100 µg/mL | IC50 [8]: 0.17 µg/mL (≈ 0.259 µM) | IC90 [8]: 2.43 µg/mL (≈ 3.7 µM) | GI50 at 48 h [9]: > 100 µg/mL | GI90 (A549): > 100 µg/mL | IC50 [10]: 0.13 µg/mL (≈ 0.198 µM) | IC90 [10]: 1.55 µg/mL (≈ 2.36 µM)
